Assay results as given in ChEMBL document CHEMBL4028862 (J Med Chem, 2017).
The source made the active and inactive calls. The rule behind the calls is not given here.

Experiments:
[1] = biological target: T1, Acid-sensing ion channel 3 (Rattus norvegicus, UniProt O35240); experiment: Inhibition of rat ASIC3 receptor expressed in xenopus lavies oocytes assessed as inhibition of pH 6.4-gated currents by two electrode voltage clamp; assay type: cell-based
T1 sequence (O35240 whole entry): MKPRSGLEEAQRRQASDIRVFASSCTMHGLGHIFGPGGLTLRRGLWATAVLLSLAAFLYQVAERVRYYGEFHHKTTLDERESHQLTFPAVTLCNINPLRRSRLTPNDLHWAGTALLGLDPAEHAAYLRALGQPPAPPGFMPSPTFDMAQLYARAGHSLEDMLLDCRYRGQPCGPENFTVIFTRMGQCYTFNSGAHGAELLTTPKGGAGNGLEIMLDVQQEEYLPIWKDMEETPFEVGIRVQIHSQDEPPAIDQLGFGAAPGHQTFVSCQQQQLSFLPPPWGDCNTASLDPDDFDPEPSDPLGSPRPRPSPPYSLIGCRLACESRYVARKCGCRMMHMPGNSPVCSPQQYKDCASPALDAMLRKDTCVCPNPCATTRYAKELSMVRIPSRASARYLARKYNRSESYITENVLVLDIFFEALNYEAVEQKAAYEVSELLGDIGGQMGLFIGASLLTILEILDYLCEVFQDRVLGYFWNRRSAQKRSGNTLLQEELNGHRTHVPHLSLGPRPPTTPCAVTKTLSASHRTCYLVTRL

[2] = biological target: T2, Acid-sensing ion channel 1 (Rattus norvegicus, UniProt P55926); experiment: Inhibition of rat ASIC1a receptor expressed in xenopus lavies oocytes assessed as inhibition of pH 6.7-gated currents by two electrode voltage clamp; assay type: cell-based
T2 sequence (P55926 whole entry): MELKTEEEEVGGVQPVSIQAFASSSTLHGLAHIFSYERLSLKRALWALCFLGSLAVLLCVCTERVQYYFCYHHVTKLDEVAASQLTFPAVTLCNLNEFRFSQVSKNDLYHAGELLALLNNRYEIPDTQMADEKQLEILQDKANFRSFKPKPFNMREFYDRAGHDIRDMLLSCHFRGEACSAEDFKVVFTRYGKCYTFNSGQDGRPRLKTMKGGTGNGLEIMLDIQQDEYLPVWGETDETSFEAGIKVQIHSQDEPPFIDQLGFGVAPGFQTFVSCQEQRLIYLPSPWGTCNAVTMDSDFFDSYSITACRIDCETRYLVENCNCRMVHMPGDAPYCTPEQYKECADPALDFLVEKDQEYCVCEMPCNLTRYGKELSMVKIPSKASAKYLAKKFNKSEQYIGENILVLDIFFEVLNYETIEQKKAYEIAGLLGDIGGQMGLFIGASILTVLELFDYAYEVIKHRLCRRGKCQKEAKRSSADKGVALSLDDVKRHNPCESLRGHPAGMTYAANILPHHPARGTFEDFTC

[3] = biological target: T3, Acid-sensing ion channel 1 (Rattus norvegicus) (UniProt P55926); experiment: Inhibition of rat ASIC1a receptor expressed in xenopus lavies oocytes at 0.03 to 3 mM at greater than pH 5 by two electrode voltage clamp; assay type: cell-based
T3 sequence (whole entry): T2 sequence (P55926 whole entry)

[4] = biological target: T3, Acid-sensing ion channel 1 (Rattus norvegicus); experiment: Inhibition of rat ASIC1a receptor expressed in xenopus lavies oocytes at 0.1 to 3 mM at greater than pH 5 by two electrode voltage clamp; assay type: cell-based
[5] = Solubility of the compound in buffer at pH 4; assay type: physicochemical
[6] = biological target: T3, Acid-sensing ion channel 1 (Rattus norvegicus)
cells = conditions: Rattus norvegicus
[7] = Solubility of the compound in buffer at less than pH 5; assay type: physicochemical

For `Cc1ccc(C(C)C(=O)O)cc1` (centres undefined), the IC50 [1] was 708 µM and the IC50 [2] was over 10000 µM.
Work on `CC(C)Cc1ccc(C(F)C(=O)O)cc1` (centres undefined) yielded an IC50 [1] of 891 µM and an IC50 [2] of 955 µM.
With `CC(C)Cc1ccc(C(=O)O)cc1` the IC50 [1] was 302 µM, the inhibition [3] was “Active” and the IC50 [2] was 417 µM.
In the case of `CC(C)Cc1ccc(C(C)[N+](=O)[O-])cc1` (centres undefined), the inhibition [4] is reported as “inactive”.
`CC(C(=O)O)c1ccc(-c2ccccc2)c(F)c1` (racemic) [FLURBIPROFEN] showed an IC50 [1] of 229 µM and an IC50 [2] of 170 µM.
In the case of `CC(C)Cc1ccc(C(C)C(=O)O)cc1` (racemic) [IBUPROFEN], the solubility [5] is reported as “Insoluble”, the pH50 [6] is reported as 6.6 and the IC50 (cells) is reported as 3000 µM. The IC50 (cells; read-out: pIC50 (converted)) was 3160 µM and the solubility [7] was “Insoluble”.
For `CCC(C(=O)O)c1ccc(CC(C)C)cc1` (centres undefined) [BUTIBUFEN], the IC50 [1] was 288 µM and the IC50 [2] was 182 µM.
`CC(C)Cc1ccc(CC(=O)O)cc1` [IBUFENAC] showed an IC50 [1] of 417 µM and an IC50 [2] of 1020 µM.
